A word on the EC50: it is the concentration giving half of the maximal effect.

Here are results for three molecules from paper PMC3959898 (Molecular microbiology, 2014).

Structures are written as SMILES.

In assay [1] the target is CqsSVc (Vibrio cholerae serotype O1, UniProt Q9KM66). The experiment in a line: V. harveyi bioluminescent reporter strain expressing cqsSVc. In kind it is cell-based.
In assay [2] the test system is CqsSPa. Nature of the assay: V. harveyi bioluminescent reporter strain expressing cqsSPa. In kind it is cell-based, Photobacterium angustum. The following applies: for EC50: dose-dependent bioluminescence response.
The subject of assay [3] is CqsSPa^S168C. Type of assay: cell-based, Photobacterium angustum. The following applies: Fig. S2.
Assay [4] deals with T1, CqsSVh (Vibrio campbellii, UniProt A7N6S2).
T1 sequence (A7N6S2 1-681): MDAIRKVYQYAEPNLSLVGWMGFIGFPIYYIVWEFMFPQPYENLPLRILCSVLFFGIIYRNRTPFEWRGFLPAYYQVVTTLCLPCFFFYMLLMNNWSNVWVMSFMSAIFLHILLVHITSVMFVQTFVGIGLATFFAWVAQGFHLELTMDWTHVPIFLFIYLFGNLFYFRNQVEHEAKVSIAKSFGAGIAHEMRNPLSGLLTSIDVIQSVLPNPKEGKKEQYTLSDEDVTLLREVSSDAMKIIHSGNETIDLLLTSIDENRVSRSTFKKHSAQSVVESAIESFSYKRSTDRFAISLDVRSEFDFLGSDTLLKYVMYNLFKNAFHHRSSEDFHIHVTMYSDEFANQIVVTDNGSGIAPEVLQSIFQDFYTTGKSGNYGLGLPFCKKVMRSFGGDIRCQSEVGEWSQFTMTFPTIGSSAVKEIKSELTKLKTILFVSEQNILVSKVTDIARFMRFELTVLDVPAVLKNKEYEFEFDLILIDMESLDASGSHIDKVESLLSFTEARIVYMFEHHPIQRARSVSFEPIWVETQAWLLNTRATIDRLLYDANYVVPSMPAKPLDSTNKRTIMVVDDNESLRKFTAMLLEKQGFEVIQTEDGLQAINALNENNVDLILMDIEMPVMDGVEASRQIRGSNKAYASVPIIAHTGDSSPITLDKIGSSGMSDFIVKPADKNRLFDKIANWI
Nature of the assay: V. harveyi bioluminescent reporter strain expressing cqsSVh. In kind it is cell-based, Vibrio harveyi.

Chain of CqsSVc (Q9KM66 whole entry, looked up): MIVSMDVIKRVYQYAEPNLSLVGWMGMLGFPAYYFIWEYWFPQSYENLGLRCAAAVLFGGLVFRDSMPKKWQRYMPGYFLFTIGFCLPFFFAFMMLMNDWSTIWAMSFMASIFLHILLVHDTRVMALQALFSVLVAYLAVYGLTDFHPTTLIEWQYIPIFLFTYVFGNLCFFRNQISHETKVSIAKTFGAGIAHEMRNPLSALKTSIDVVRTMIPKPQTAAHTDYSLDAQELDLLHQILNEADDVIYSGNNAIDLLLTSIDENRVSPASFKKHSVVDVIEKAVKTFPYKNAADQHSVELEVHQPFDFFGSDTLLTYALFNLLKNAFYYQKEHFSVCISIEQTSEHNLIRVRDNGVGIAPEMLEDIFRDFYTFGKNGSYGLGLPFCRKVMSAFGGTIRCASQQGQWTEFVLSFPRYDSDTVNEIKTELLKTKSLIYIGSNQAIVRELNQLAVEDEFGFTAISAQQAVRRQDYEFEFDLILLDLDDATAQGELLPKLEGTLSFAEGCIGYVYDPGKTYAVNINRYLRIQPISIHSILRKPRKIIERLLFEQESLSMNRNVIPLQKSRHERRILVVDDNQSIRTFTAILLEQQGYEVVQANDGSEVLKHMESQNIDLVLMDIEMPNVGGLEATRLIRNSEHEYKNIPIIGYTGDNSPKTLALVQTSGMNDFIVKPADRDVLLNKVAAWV

As for `C/C=C(\N)C(=O)CCCCCCCCC` [Ea-C10-CAI-1], the EC50 in assay [1] was 150 nM; in assay [2] (reporter expressing CqsSPa), 4 nM. Moreover, the “detection of CAI-1 molecules” value in assay [3] is recorded as “retained the ability to detect”.
`C/C=C(\N)C(=O)CCCCCCC` [Ea-C8-CAI-1, (Z)-3-aminoundec-2-en-4-one] registered a half-maximal effective concentration (EC50) in assay [4] of 100 nM. For the same molecule, the light production result in assay [4] (reporter carrying cqsSVh, synthetic molecule at 5 μM) was “produced light”. Moreover, in assay [2] (reporter expressing CqsSPa), the “response (light production) in dose-response” value is given as “modest response”.
Regarding `CCCCCCCCCC(=O)[C@@H](O)CC` [C10-CAI-1, (S)-3-hydroxytridecan-4-one], the half-maximal effective concentration (EC50) in assay [2] (reporter expressing CqsSPa) stood at 12 nM. In addition, the “increase in light production” value in assay [2] (reporter carrying cqsSPa, synthetic molecule at 5 μM) was ~ 1000 fold. In addition, in assay [3], the “detection of CAI-1 molecules” value is “retained the ability to detect”.
